This test relates to HT29 cells. As to the kind of experiment: Optimisation of HT29 cell growth in butyrate as sole extraneous carbon source (cell counts). It is filed as cell-based, human. Particulars: HT29 colon carcinoma cells, DMEM without glucose, multiple concentrations compared. As for the experimental part: We have compared the expression profiles of colon cells growing in either glucose or butyrate as a carbon source. HT 29 colon carcinoma cells were cultured in DMEM medium (Gibco) in the presence of 10% foetal calf serum, penicillin and streptomycin. Cells were either cultured in glucose alone as the sole carbon source, or in butyrate as the sole extraneous provided carbon source. […] Cells were cultured in either medium for multiple passages (typically 4). RNA was extracted from cells grown in each condition and used to probe an Affymetrix human 12 k array. The expression profile of cells cultured in each condition was compared and genes altered in expression by more than 2 fold are listed in Table 2.
HT29 cells were seeded out into 19 wells (in 6 well plates) at a cell density of 0.5×10^6 cells per well (i.e. 500 000 cells per well) deduced with the aid of a Haemocytometer (Improved Neubauer). These cells were taken from T75-0.2 mM butyrate (NaB) DMEM flasks and allowed to adhere to the 6-well plates over 72 hrs also in 0.2 mM NaB DMEM with FCS and Penicillin/Streptomycin antibiotics. […]

Turning to `CCCC(=O)[O-].[Na+]` [butyrate, Sodium Butyrate], the “butyrate concentration optimal for cell culture” value is recorded as 2 mM.
